Results published in patent US7759337B2, “Phthalazine compounds and methods of use” (Amgen Inc., priority 2005, dated 2010).

Tested on: production of TNF by monocytes activated with bacterial lipopolysaccharide (LPS)
Experiment: Lipopolysaccharide-activated monocyte TNF production assay
Type: cell-based
Conditions: Homo sapiens; whole blood monocyte assay (LPS induced TNF release)
In short: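 Adherent human PBMC-derived monocytes preincubated 60 min with nine two-fold compound dilutions, then stimulated with E. coli K532 LPS (30 ng/mL in the added medium) for 4 h at 37 °C. Supernatant TNF measured by sandwich ELISA; IC50 is the compound concentration halving TNF production, from second-order polynomial fits.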

Cc1ccc(C(N)=O)cc1-c1ccc2c(Oc3ccccc3)nncc2c1 [Example 406, 4-methyl-3-(1-phenoxyphthalazin-6-yl)benzamide]
IC50: ≤ 5 µM

Cc1ccc(C(N)=O)cc1-c1ccc2c(NCCO)nncc2c1 [Example 407, 3-{1-[(2-hydroxyethyl)amino]phthalazin-6-yl}-4-methylbenzamide]
IC50: ≤ 5 µM
